According to patent publication US20060252807A1, “Novel ortho-terphenyl inhibitors of p38 kinase and methods of treating inflammatory disorders” (Kalypsys, Inc., priority 2005, published 2006):

Target: T1, active p38 alpha enzyme (Upstate Biotechnology) (Homo sapiens, UniProt Q16539)
T1 construct: purchased Upstate Biotechnology
Assay: p38α biochemical assay (ATP turnover, luminescent detection, Cambrex PKlight)
Details: p38α biochemical assay, Table 1 Biological Activity
Summary of the method: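 p38α + MapkapK2 (whole protein substrate) + 1.4 uM ATP final; Tris/MOPS buffer with MgCl2, CaCl2, EGTA, EDTA, glycerol, β-ME, BSA; 2 h at 30C; luminescent detection of remaining ATP.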

T1 sequence (Q16539 whole entry): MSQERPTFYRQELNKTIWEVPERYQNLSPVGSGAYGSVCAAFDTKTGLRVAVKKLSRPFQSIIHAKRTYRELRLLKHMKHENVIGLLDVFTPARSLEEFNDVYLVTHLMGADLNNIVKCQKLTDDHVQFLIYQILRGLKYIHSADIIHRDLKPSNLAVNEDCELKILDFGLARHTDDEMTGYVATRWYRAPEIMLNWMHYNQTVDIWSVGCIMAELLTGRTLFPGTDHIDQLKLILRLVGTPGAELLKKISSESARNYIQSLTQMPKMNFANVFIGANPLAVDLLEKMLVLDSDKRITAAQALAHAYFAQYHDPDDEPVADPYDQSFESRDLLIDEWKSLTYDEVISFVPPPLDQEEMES

| IC50 | SMILES |
| --- | --- |
| > 1000 nM | COc1ccc(/C=C/C(=O)NCc2onc(-c3ccc(F)cc3)c2-c2nc(C(=O)NC(C)C)cs2)cc1O [Example 737] |
| > 1000 nM | CCCCOc1ccc(C(=O)NCc2onc(-c3ccc(F)cc3)c2-c2nc(C(=O)NC(C)C)cs2)cc1 [Example 738] |
| > 1000 nM | CC(C)NC(=O)c1csc(-c2c(-c3ccc(F)cc3)noc2CNC(=O)c2cc3cc(Cl)ccc3o2)n1 [Example 739] |
| > 1000 nM | COc1ccc([N+](=O)[O-])c(C(=O)NCc2onc(-c3ccc(F)cc3)c2-c2nc(C(=O)NC(C)C)cs2)c1 [Example 740] |
| > 1000 nM | COc1cc(C(=O)NCc2onc(-c3ccc(F)cc3)c2-c2nc(C(=O)NC(C)C)cs2)cc(OC)c1O [Example 741] |
| > 1000 nM | CC(C)NC(=O)c1csc(-c2c(-c3ccc(F)cc3)noc2CNC(=O)c2ccccc2-c2ccccc2)n1 [Example 742] |
| > 1000 nM | CC(C)NC(=O)c1csc(-c2c(-c3ccc(F)cc3)noc2CNC(=O)c2cccc(Br)c2)n1 [Example 743] |
| > 1000 nM | CC(C)NC(=O)c1csc(-c2c(-c3ccc(F)cc3)noc2CNC(=O)c2ccc(Br)cc2)n1 [Example 744] |
| > 1000 nM | CC(C)NC(=O)c1csc(-c2c(-c3ccc(F)cc3)noc2CNC(=O)c2cccc(Cl)c2[N+](=O)[O-])n1 [Example 745] |
| > 1000 nM | CC(C)NC(=O)c1csc(-c2c(-c3ccc(F)cc3)noc2CNC(=O)c2cc([N+](=O)[O-])ccc2Cl)n1 [Example 746] |
| ≤ 1000 nM | CC(C)NC(=O)c1csc(-c2c(-c3ccc(F)cc3)noc2CNC(=O)c2ccc([N+](=O)[O-])cc2Cl)n1 [Example 747] |
| > 1000 nM | CC(C)NC(=O)c1csc(-c2c(-c3ccc(F)cc3)noc2CNC(=O)c2ccc(Cl)cc2[N+](=O)[O-])n1 [Example 748] |
| > 1000 nM | CC(C)NC(=O)c1csc(-c2c(-c3ccc(F)cc3)noc2CNC(=O)c2ccc(Cl)c([N+](=O)[O-])c2)n1 [Example 749] |
| > 1000 nM | CC(C)NC(=O)c1csc(-c2c(-c3ccc(F)cc3)noc2CNC(=O)c2cc(Cl)ccc2[N+](=O)[O-])n1 [Example 750] |
| > 1000 nM | CC(C)NC(=O)c1csc(-c2c(-c3ccc(F)cc3)noc2CNC(=O)c2cccc(Br)n2)n1 [Example 751] |
| > 1000 nM | CC(C)NC(=O)c1csc(-c2c(-c3ccc(F)cc3)noc2CNC(=O)c2cncc(Br)c2)n1 [Example 752] |
| > 1000 nM | CC(C)NC(=O)c1csc(-c2c(-c3ccc(F)cc3)noc2CNC(=O)c2cc(F)c(F)cc2[N+](=O)[O-])n1 [Example 753] |
| > 1000 nM | CC(C)NC(=O)c1csc(-c2c(-c3ccc(F)cc3)noc2CNC(=O)Cc2ccc(C(F)(F)F)cc2)n1 [Example 754] |
| > 1000 nM | CC(C)Cc1ccc(C(C)C(=O)NCc2onc(-c3ccc(F)cc3)c2-c2nc(C(=O)NC(C)C)cs2)cc1 (stereo not shown) [Example 755] |
| > 1000 nM | CC(C)NC(=O)c1csc(-c2c(-c3ccc(F)cc3)noc2CNC(=O)c2cc(Cl)c(O)c(Cl)c2)n1 [Example 756] |

| IC50 | SMILES |
| --- | --- |
| > 1000 nM | CC(C)NC(=O)c1csc(-c2c(-c3ccc(F)cc3)noc2CNC(=O)c2c(F)c(F)c(F)c(F)c2F)n1 [Example 757] |
| > 1000 nM | COc1cc(OC)c(C(=O)NCc2onc(-c3ccc(F)cc3)c2-c2nc(C(=O)NC(C)C)cs2)c(OC)c1 [Example 758] |
| > 1000 nM | COc1cc(OC)c(C(=O)NCc2onc(-c3ccc(F)cc3)c2-c2nc(C(=O)NC(C)C)cs2)cc1OC [Example 759] |
| > 1000 nM | COc1cc(C(=O)NCc2onc(-c3ccc(F)cc3)c2-c2nc(C(=O)NC(C)C)cs2)cc(OC)c1OC [Example 760] |
| > 1000 nM | COc1ccc(C(=O)NCc2onc(-c3ccc(F)cc3)c2-c2nc(C(=O)NC(C)C)cs2)c(OC)c1OC [Example 761] |
| > 1000 nM | CC(C)NC(=O)c1csc(-c2c(-c3ccc(F)cc3)noc2CNC(=O)c2ccccc2Cc2ccccc2)n1 [Example 762] |
| > 1000 nM | CC(C)NC(=O)c1csc(-c2c(-c3ccc(F)cc3)noc2CNC(=O)c2cccc(Oc3ccccc3)c2)n1 [Example 763] |
| > 1000 nM | CC(C)NC(=O)c1csc(-c2c(-c3ccc(F)cc3)noc2CNC(=O)c2ccccc2Oc2ccccc2)n1 [Example 764] |
| > 1000 nM | CC(C)NC(=O)c1csc(-c2c(-c3ccc(F)cc3)noc2CNC(=O)c2ccc(Oc3ccccc3)cc2)n1 [Example 765] |
| > 1000 nM | CC(C)NC(=O)c1csc(-c2c(-c3ccc(F)cc3)noc2CNC(=O)c2ccc(-c3ccc(O)cc3)cc2)n1 [Example 766] |
| > 1000 nM | Cc1cc(C(=O)NCc2onc(-c3ccc(F)cc3)c2-c2nc(C(=O)NC(C)C)cs2)ccc1Br [Example 767] |
| > 1000 nM | Cc1ccc(C(=O)NCc2onc(-c3ccc(F)cc3)c2-c2nc(C(=O)NC(C)C)cs2)cc1Br [Example 768] |
| > 1000 nM | CC(C)NC(=O)c1csc(-c2c(-c3ccc(F)cc3)noc2CNC(=O)Cc2ccc(Br)cc2)n1 [Example 769] |
| > 1000 nM | CC(C)NC(=O)c1csc(-c2c(-c3ccc(F)cc3)noc2CNC(=O)C2CCCN2C(=O)OC(C)(C)C)n1 (stereo not shown) [Example 770] |
| > 1000 nM | CC(C)NC(=O)c1csc(-c2c(-c3ccc(F)cc3)noc2CNC(=O)/C=C/c2ccccc2C(F)(F)F)n1 [Example 771] |
| > 1000 nM | CCOc1ccc2ccccc2c1C(=O)NCc1onc(-c2ccc(F)cc2)c1-c1nc(C(=O)NC(C)C)cs1 [Example 772] |
| > 1000 nM | CC(C)NC(=O)c1csc(-c2c(-c3ccc(F)cc3)noc2CNC(=O)C(NC(=O)OC(C)(C)C)C(C)C)n1 (stereo not shown) [Example 773] |
| > 1000 nM | CC(C)NC(=O)c1csc(-c2c(-c3ccc(F)cc3)noc2CNC(=O)C(NC(=O)OC(C)(C)C)C(C)C)n1 (stereo not shown) [Example 774] |
| > 1000 nM | CC(C)NC(=O)c1csc(-c2c(-c3ccc(F)cc3)noc2CNC(=O)CCc2cccc(C(F)(F)F)c2)n1 [Example 775] |
| > 1000 nM | CC1=NN(c2ccc(C(=O)NCc3onc(-c4ccc(F)cc4)c3-c3nc(C(=O)NC(C)C)cs3)cc2)C(=O)C1 [Example 776] |

| IC50 | SMILES |
| --- | --- |
| > 1000 nM | Cc1nc(Br)sc1C(=O)NCc1onc(-c2ccc(F)cc2)c1-c1nc(C(=O)NC(C)C)cs1 [Example 777] |
| > 1000 nM | CC(C)NC(=O)c1csc(-c2c(-c3ccc(F)cc3)noc2CNC(=O)c2c3ccccc3cc3ccccc23)n1 [Example 778] |
| > 1000 nM | CC(C)NC(=O)c1csc(-c2c(-c3ccc(F)cc3)noc2CNC(=O)c2cc(C(C)C)cc(C(C)C)c2O)n1 [Example 779] |
| > 1000 nM | CC(=O)NC(Cc1ccc(O)cc1)C(=O)NCc1onc(-c2ccc(F)cc2)c1-c1nc(C(=O)NC(C)C)cs1 (stereo not shown) [Example 780] |
| > 1000 nM | CC(C)NC(=O)c1csc(-c2c(-c3ccc(F)cc3)noc2CNC(=O)c2c(Cl)cc(Cl)cc2Cl)n1 [Example 781] |
| > 1000 nM | COc1cc(C(=O)NCc2onc(-c3ccc(F)cc3)c2-c2nc(C(=O)NC(C)C)cs2)c([N+](=O)[O-])cc1OC [Example 782] |
| > 1000 nM | CC(C)NC(=O)c1csc(-c2c(-c3ccc(F)cc3)noc2CNC(=O)c2ccc(OCc3ccccc3)cc2)n1 [Example 783] |
| > 1000 nM | CC(C)NC(=O)c1csc(-c2c(-c3ccc(F)cc3)noc2CNC(=O)CCc2ccccc2Br)n1 [Example 784] |
| > 1000 nM | CC(C)NC(=O)c1csc(-c2c(-c3ccc(F)cc3)noc2CNC(=O)CCc2cccc(Br)c2)n1 [Example 785] |
| > 1000 nM | CC(C)NC(=O)c1csc(-c2c(-c3ccc(F)cc3)noc2CNC(=O)C2CCCCN2C(=O)OC(C)(C)C)n1 (stereo not shown) [Example 786] |
| > 1000 nM | CC(C)NC(=O)c1csc(-c2c(-c3ccc(F)cc3)noc2CNC(=O)c2ccc(Oc3cccc(O)c3)cc2)n1 [Example 787] |
| > 1000 nM | COc1ccc2cc(C(C)C(=O)NCc3onc(-c4ccc(F)cc4)c3-c3nc(C(=O)NC(C)C)cs3)ccc2c1 (stereo not shown) [Example 788] |
| > 1000 nM | CC(C)NC(=O)c1csc(-c2c(-c3ccc(F)cc3)noc2CNC(=O)C2CN(C(=O)OC(C)(C)C)CCN2)n1 (stereo not shown) [Example 789] |
| > 1000 nM | CC(C)NC(=O)c1csc(-c2c(-c3ccc(F)cc3)noc2CNC(=O)C2CN(C(=O)OC(C)(C)C)CCN2)n1 (stereo not shown) [Example 790] |
| > 1000 nM | COc1ccc(Br)c(C(=O)NCc2onc(-c3ccc(F)cc3)c2-c2nc(C(=O)NC(C)C)cs2)c1 [Example 791] |
| > 1000 nM | CC(C)NC(=O)c1csc(-c2c(-c3ccc(F)cc3)noc2CNC(=O)C2CC(O)CN2C(=O)OC(C)(C)C)n1 (stereo not shown) [Example 792] |
| > 1000 nM | CC(C)NC(=O)c1csc(-c2c(-c3ccc(F)cc3)noc2CNC(=O)C(C(C)C)N(C)C(=O)OC(C)(C)C)n1 (stereo not shown) [Example 793] |
| > 1000 nM | CC(C)NC(=O)c1csc(-c2c(-c3ccc(F)cc3)noc2CNC(=O)c2ccc(C(F)(F)F)cc2[N+](=O)[O-])n1 [Example 794] |
| > 1000 nM | CC(C)NC(=O)c1csc(-c2c(-c3ccc(F)cc3)noc2CNC(=O)c2cc(Br)ccc2Cl)n1 [Example 795] |
| > 1000 nM | CC(C)NC(=O)c1csc(-c2c(-c3ccc(F)cc3)noc2CNC(=O)c2ccc(Cl)c(Br)c2)n1 [Example 796] |

Same assay, conditions: p38α kinase; Table 1 Biological Activity

| IC50 | SMILES |
| --- | --- |
| > 1000 nM | CC(C)NC(=O)c1csc(-c2c(-c3ccc(F)cc3)noc2CNC(=O)c2ccccc2C(=O)c2ccc(O)cc2)n1 [Example 797] |
| > 1000 nM | CC(C)NC(=O)c1csc(-c2c(-c3ccc(F)cc3)noc2CNC(=O)c2ccccc2C(=O)c2ccc(F)cc2)n1 [Example 798] |
| > 1000 nM | CC(C)NC(=O)c1csc(-c2c(-c3ccc(F)cc3)noc2CNC(=O)C(C)c2ccc(-c3ccccc3)c(F)c2)n1 (stereo not shown) [Example 799] |
| > 1000 nM | CC(C)NC(=O)c1csc(-c2c(-c3ccc(F)cc3)noc2CNC(=O)c2cccc(I)c2)n1 [Example 801] |
| > 1000 nM | CC(C)NC(=O)c1csc(-c2c(-c3ccc(F)cc3)noc2CNC(=O)C2CCCN2C(=O)OCc2ccccc2)n1 (stereo not shown) [Example 802] |
| > 1000 nM | CCC(C)C(NC(=O)OC(C)(C)C)C(=O)NCc1onc(-c2ccc(F)cc2)c1-c1nc(C(=O)NC(C)C)cs1 (stereo not shown) [Example 803] |
| > 1000 nM | CC(C)CC(NC(=O)OC(C)(C)C)C(=O)NCc1onc(-c2ccc(F)cc2)c1-c1nc(C(=O)NC(C)C)cs1 (stereo not shown) [Example 804] |
